# From ChEMBL document CHEMBL4627399, “Synthesis and Structure-Activity Relationships of 5'-Aryl-14-alkoxypyridomorphinans: Identification of a μ Opioid Receptor Agonist/δ Opioid Receptor Antagonist Ligand with Systemic Antinociceptive Activity and Diminished Opioid Side Effects” (J Med Chem, 2020)
# Calls of active or inactive are those of the source. The calls are words filed in the database; no cut-off is given here.
# Target: T1, Mu-type opioid receptor (Homo sapiens, UniProt P35372)
# Assay: biochemical
# Settings: not given
row,SMILES,EC50
1,Oc1ccc2c3c1O[C@H]1c4ncc(-c5ccc(F)cc5F)cc4C[C@@]4(OCCCc5ccccc5)[C@@H](C2)N(CC2CC2)CC[C@]314,130 nM
2,Cc1ccc(-c2cnc3c(c2)C[C@@]2(OCCCc4ccccc4)[C@H]4Cc5ccc(O)c6c5[C@@]2(CCN4CC2CC2)[C@H]3O6)cc1,2.31 nM
3,Oc1ccc2c3c1O[C@H]1c4ncc(-c5ccccc5)cc4C[C@@]4(OCCCC5CCCCC5)[C@@H](C2)N(CC2CC2)CC[C@]314,23.6 nM
4,Oc1cccc(-c2cnc3c(c2)C[C@@]2(OCCCc4ccccc4)[C@H]4Cc5ccc(O)c6c5[C@@]2(CCN4CC2CC2)[C@H]3O6)c1,1.12 nM

# Test system: not listed separately
# Assay: Stability in human liver microsomes at 1 uM measured up to 60 mins by LC-MS/MS analysis
# Format: ADME, Microsome
# Settings: 1 h
row,SMILES,Stability
1,Oc1ccc2c3c1O[C@H]1c4ncc(-c5ccc(F)c(F)c5)cc4C[C@@]4(OCCCc5ccccc5)[C@@H](C2)N(CC2CC2)CC[C@]314,Stable
2,Oc1ccc2c3c1O[C@H]1c4ncc(-c5ccccc5)cc4C[C@@]4(OCCCC5CCOCC5)[C@@H](C2)N(CC2CC2)CC[C@]314,Stable
3,Cc1cc(F)ccc1-c1cnc2c(c1)C[C@@]1(OCCCc3ccccc3)[C@H]3Cc4ccc(O)c5c4[C@@]1(CCN3CC1CC1)[C@H]2O5,Stable
4,CC(=O)Nc1ccc(-c2cnc3c(c2)C[C@@]2(OCCCc4ccccc4)[C@H]4Cc5ccc(O)c6c5[C@@]2(CCN4CC2CC2)[C@H]3O6)cc1,Stable
5,CC(=O)Nc1cccc(-c2cnc3c(c2)C[C@@]2(OCCCc4ccccc4)[C@H]4Cc5ccc(O)c6c5[C@@]2(CCN4CC2CC2)[C@H]3O6)c1,Stable
6,Oc1ccc2c3c1O[C@H]1c4ncc(-c5ccc(Cl)cc5)cc4C[C@@]4(OCCCc5ccccc5)[C@@H](C2)N(CC2CC2)CC[C@]314,Stable
7,Oc1ccc2c3c1O[C@H]1c4ncc(-c5ccc(F)cc5F)cc4C[C@@]4(OCCCc5ccccc5)[C@@H](C2)N(CC2CC2)CC[C@]314,Stable
8,Cc1ccc(-c2cnc3c(c2)C[C@@]2(OCCCc4ccccc4)[C@H]4Cc5ccc(O)c6c5[C@@]2(CCN4CC2CC2)[C@H]3O6)cc1,Stable
9,COc1ccc(-c2cnc3c(c2)C[C@@]2(OCCCc4ccccc4)[C@H]4Cc5ccc(O)c6c5[C@@]2(CCN4CC2CC2)[C@H]3O6)cc1,Stable
10,Oc1ccc2c3c1O[C@H]1c4ncc(-c5ccc(Br)cc5)cc4C[C@@]4(OCCCc5ccccc5)[C@@H](C2)N(CC2CC2)CC[C@]314,Stable
11,Oc1ccc2c3c1O[C@H]1c4ncc(-c5ccccc5)cc4C[C@@]4(OCCCC5CCCCC5)[C@@H](C2)N(CC2CC2)CC[C@]314,Stable
12,Oc1cccc(-c2cnc3c(c2)C[C@@]2(OCCCc4ccccc4)[C@H]4Cc5ccc(O)c6c5[C@@]2(CCN4CC2CC2)[C@H]3O6)c1,Stable
13,Oc1ccc2c3c1O[C@H]1c4ncc(-c5ccccc5)cc4C[C@@]4(OCCCc5ccc(F)cc5)[C@@H](C2)N(CC2CC2)CC[C@]314,Stable

# Target: T2, Delta-type opioid receptor (Homo sapiens, UniProt P41143)
# Assay: Displacement of [3H]-diprenorphine from human delta opioid receptor expressed in CHO cell membranes incubated for 1 hr by competition radioligand binding assay
# Settings: not given
row,SMILES,Ki
1,Oc1ccc2c3c1O[C@H]1c4ncc(-c5ccc(F)c(F)c5)cc4C[C@@]4(OCCCc5ccccc5)[C@@H](C2)N(CC2CC2)CC[C@]314,7.52 nM
2,Oc1ccc2c3c1O[C@H]1c4ncc(-c5ccccc5)cc4C[C@@]4(OCCCC5CCOCC5)[C@@H](C2)N(CC2CC2)CC[C@]314,64.5 nM
3,Cc1cc(F)ccc1-c1cnc2c(c1)C[C@@]1(OCCCc3ccccc3)[C@H]3Cc4ccc(O)c5c4[C@@]1(CCN3CC1CC1)[C@H]2O5,3.78 nM
4,CC(=O)Nc1ccc(-c2cnc3c(c2)C[C@@]2(OCCCc4ccccc4)[C@H]4Cc5ccc(O)c6c5[C@@]2(CCN4CC2CC2)[C@H]3O6)cc1,394 nM
5,CC(=O)Nc1cccc(-c2cnc3c(c2)C[C@@]2(OCCCc4ccccc4)[C@H]4Cc5ccc(O)c6c5[C@@]2(CCN4CC2CC2)[C@H]3O6)c1,> 3330 nM
6,Oc1ccc2c3c1O[C@H]1c4ncc(-c5ccc(F)cc5F)cc4C[C@@]4(OCCCc5ccccc5)[C@@H](C2)N(CC2CC2)CC[C@]314,53.7 nM
7,Cc1ccc(-c2cnc3c(c2)C[C@@]2(OCCCc4ccccc4)[C@H]4Cc5ccc(O)c6c5[C@@]2(CCN4CC2CC2)[C@H]3O6)cc1,34.4 nM
8,COc1ccc(-c2cnc3c(c2)C[C@@]2(OCCCc4ccccc4)[C@H]4Cc5ccc(O)c6c5[C@@]2(CCN4CC2CC2)[C@H]3O6)cc1,30.6 nM
9,Oc1ccc2c3c1O[C@H]1c4ncc(-c5ccc(Br)cc5)cc4C[C@@]4(OCCCc5ccccc5)[C@@H](C2)N(CC2CC2)CC[C@]314,20.9 nM
10,Oc1ccc2c3c1O[C@H]1c4ncc(-c5ccccc5)cc4C[C@@]4(OCCCC5CCCCC5)[C@@H](C2)N(CC2CC2)CC[C@]314,12.9 nM
11,Oc1cccc(-c2cnc3c(c2)C[C@@]2(OCCCc4ccccc4)[C@H]4Cc5ccc(O)c6c5[C@@]2(CCN4CC2CC2)[C@H]3O6)c1,8.37 nM
12,Oc1ccc2c3c1O[C@H]1c4ncc(-c5ccccc5)cc4C[C@@]4(OCCCc5ccc(F)cc5)[C@@H](C2)N(CC2CC2)CC[C@]314,11 nM

# Target: T3, Kappa-type opioid receptor (Homo sapiens, UniProt P41145)
# Assay: Displacement of [3H]-diprenorphine from human kappa opioid receptor expressed in CHO cell membranes incubated for 1 hr by competition radioligand binding assay
# Settings: not given
row,SMILES,Ki
1,Oc1ccc2c3c1O[C@H]1c4ncc(-c5ccc(F)c(F)c5)cc4C[C@@]4(OCCCc5ccccc5)[C@@H](C2)N(CC2CC2)CC[C@]314,71.2 nM
2,Oc1ccc2c3c1O[C@H]1c4ncc(-c5ccccc5)cc4C[C@@]4(OCCCC5CCOCC5)[C@@H](C2)N(CC2CC2)CC[C@]314,24.8 nM
3,Cc1cc(F)ccc1-c1cnc2c(c1)C[C@@]1(OCCCc3ccccc3)[C@H]3Cc4ccc(O)c5c4[C@@]1(CCN3CC1CC1)[C@H]2O5,129 nM
4,CC(=O)Nc1ccc(-c2cnc3c(c2)C[C@@]2(OCCCc4ccccc4)[C@H]4Cc5ccc(O)c6c5[C@@]2(CCN4CC2CC2)[C@H]3O6)cc1,15.1 nM
5,CC(=O)Nc1cccc(-c2cnc3c(c2)C[C@@]2(OCCCc4ccccc4)[C@H]4Cc5ccc(O)c6c5[C@@]2(CCN4CC2CC2)[C@H]3O6)c1,608 nM
6,Oc1ccc2c3c1O[C@H]1c4ncc(-c5ccc(F)cc5F)cc4C[C@@]4(OCCCc5ccccc5)[C@@H](C2)N(CC2CC2)CC[C@]314,35.9 nM
7,Cc1ccc(-c2cnc3c(c2)C[C@@]2(OCCCc4ccccc4)[C@H]4Cc5ccc(O)c6c5[C@@]2(CCN4CC2CC2)[C@H]3O6)cc1,102 nM
8,COc1ccc(-c2cnc3c(c2)C[C@@]2(OCCCc4ccccc4)[C@H]4Cc5ccc(O)c6c5[C@@]2(CCN4CC2CC2)[C@H]3O6)cc1,140 nM
9,Oc1ccc2c3c1O[C@H]1c4ncc(-c5ccc(Br)cc5)cc4C[C@@]4(OCCCc5ccccc5)[C@@H](C2)N(CC2CC2)CC[C@]314,75.9 nM
10,Oc1ccc2c3c1O[C@H]1c4ncc(-c5ccccc5)cc4C[C@@]4(OCCCC5CCCCC5)[C@@H](C2)N(CC2CC2)CC[C@]314,57.9 nM
11,Oc1cccc(-c2cnc3c(c2)C[C@@]2(OCCCc4ccccc4)[C@H]4Cc5ccc(O)c6c5[C@@]2(CCN4CC2CC2)[C@H]3O6)c1,18.1 nM
12,Oc1ccc2c3c1O[C@H]1c4ncc(-c5ccccc5)cc4C[C@@]4(OCCCc5ccc(F)cc5)[C@@H](C2)N(CC2CC2)CC[C@]314,60.2 nM

# Target: T3, Kappa-type opioid receptor
# Assay: Agonist activity at human kappa opioid receptor expressed in CHO cell membranes incubated for 1 hr by [35S]GTPgammaS binding assay
# Format: functional
# Settings: cho
row,SMILES,EC50
1,Cc1cc(F)ccc1-c1cnc2c(c1)C[C@@]1(OCCCc3ccccc3)[C@H]3Cc4ccc(O)c5c4[C@@]1(CCN3CC1CC1)[C@H]2O5,Not Active
2,Oc1ccc2c3c1O[C@H]1c4ncc(-c5ccccc5)cc4C[C@@]4(OCCCc5ccc(F)cc5)[C@@H](C2)N(CC2CC2)CC[C@]314,Not Active

# Same assay, conditions: read-out: EC50
row,SMILES,EC50
1,COc1ccc(-c2cnc3c(c2)C[C@@]2(OCCCc4ccccc4)[C@H]4Cc5ccc(O)c6c5[C@@]2(CCN4CC2CC2)[C@H]3O6)cc1,2.02 nM
2,Oc1ccc2c3c1O[C@H]1c4ncc(-c5ccc(Br)cc5)cc4C[C@@]4(OCCCc5ccccc5)[C@@H](C2)N(CC2CC2)CC[C@]314,5.52 nM
3,Oc1ccc2c3c1O[C@H]1c4ncc(-c5ccccc5)cc4C[C@@]4(OCCCC5CCCCC5)[C@@H](C2)N(CC2CC2)CC[C@]314,34.5 nM

# Target: T2, Delta-type opioid receptor
# Assay: Antagonist activity at human delta opioid receptor expressed in CHO cell membranes assessed as reduction in SNC80-induced [35S]GTPgammaS binding preincubated for 5 mins followed by SNC80 addition and measured after 1 hr
# Format: functional
# Settings: not given
row,SMILES,IC50
1,Oc1ccc2c3c1O[C@H]1c4ncc(-c5ccccc5)cc4C[C@@]4(OCCCC5CCOCC5)[C@@H](C2)N(CC2CC2)CC[C@]314,< 0.17 nM
2,Cc1cc(F)ccc1-c1cnc2c(c1)C[C@@]1(OCCCc3ccccc3)[C@H]3Cc4ccc(O)c5c4[C@@]1(CCN3CC1CC1)[C@H]2O5,28.2 nM
3,Oc1ccc2c3c1O[C@H]1c4ncc(-c5ccc(F)cc5F)cc4C[C@@]4(OCCCc5ccccc5)[C@@H](C2)N(CC2CC2)CC[C@]314,3.2 nM
4,Cc1ccc(-c2cnc3c(c2)C[C@@]2(OCCCc4ccccc4)[C@H]4Cc5ccc(O)c6c5[C@@]2(CCN4CC2CC2)[C@H]3O6)cc1,3.63 nM
5,COc1ccc(-c2cnc3c(c2)C[C@@]2(OCCCc4ccccc4)[C@H]4Cc5ccc(O)c6c5[C@@]2(CCN4CC2CC2)[C@H]3O6)cc1,22 nM
6,Oc1ccc2c3c1O[C@H]1c4ncc(-c5ccc(Br)cc5)cc4C[C@@]4(OCCCc5ccccc5)[C@@H](C2)N(CC2CC2)CC[C@]314,< 0.51 nM
7,Oc1ccc2c3c1O[C@H]1c4ncc(-c5ccccc5)cc4C[C@@]4(OCCCC5CCCCC5)[C@@H](C2)N(CC2CC2)CC[C@]314,28.7 nM
8,Oc1cccc(-c2cnc3c(c2)C[C@@]2(OCCCc4ccccc4)[C@H]4Cc5ccc(O)c6c5[C@@]2(CCN4CC2CC2)[C@H]3O6)c1,1.28 nM
9,Oc1ccc2c3c1O[C@H]1c4ncc(-c5ccccc5)cc4C[C@@]4(OCCCc5ccc(F)cc5)[C@@H](C2)N(CC2CC2)CC[C@]314,63.8 nM

# Target: T3, Kappa-type opioid receptor
# Assay: Agonist activity at human kappa opioid receptor expressed in CHO cell membranes assessed as stimulation of [35S]GTPgammaS binding incubated for 1 hr relative to […]
# Format: functional
# Settings: not given
row,SMILES,Emax
1,Cc1cc(F)ccc1-c1cnc2c(c1)C[C@@]1(OCCCc3ccccc3)[C@H]3Cc4ccc(O)c5c4[C@@]1(CCN3CC1CC1)[C@H]2O5,inactive
2,Oc1ccc2c3c1O[C@H]1c4ncc(-c5ccccc5)cc4C[C@@]4(OCCCc5ccc(F)cc5)[C@@H](C2)N(CC2CC2)CC[C@]314,inactive

# Target: T1, Mu-type opioid receptor
# Assay: biochemical
# Format: cell-based, CHO
# Settings: not given
# Remark: another data set of the same source
row,SMILES,Ki
1,Oc1ccc2c3c1O[C@H]1c4ncc(-c5ccc(F)c(F)c5)cc4C[C@@]4(OCCCc5ccccc5)[C@@H](C2)N(CC2CC2)CC[C@]314,370 nM
2,CC(=O)Nc1ccc(-c2cnc3c(c2)C[C@@]2(OCCCc4ccccc4)[C@H]4Cc5ccc(O)c6c5[C@@]2(CCN4CC2CC2)[C@H]3O6)cc1,159 nM
3,CC(=O)Nc1cccc(-c2cnc3c(c2)C[C@@]2(OCCCc4ccccc4)[C@H]4Cc5ccc(O)c6c5[C@@]2(CCN4CC2CC2)[C@H]3O6)c1,337 nM
4,Oc1ccc2c3c1O[C@H]1c4ncc(-c5ccc(F)cc5F)cc4C[C@@]4(OCCCc5ccccc5)[C@@H](C2)N(CC2CC2)CC[C@]314,171 nM
5,Cc1ccc(-c2cnc3c(c2)C[C@@]2(OCCCc4ccccc4)[C@H]4Cc5ccc(O)c6c5[C@@]2(CCN4CC2CC2)[C@H]3O6)cc1,191 nM
6,Oc1ccc2c3c1O[C@H]1c4ncc(-c5ccccc5)cc4C[C@@]4(OCCCC5CCCCC5)[C@@H](C2)N(CC2CC2)CC[C@]314,95.3 nM
7,Oc1cccc(-c2cnc3c(c2)C[C@@]2(OCCCc4ccccc4)[C@H]4Cc5ccc(O)c6c5[C@@]2(CCN4CC2CC2)[C@H]3O6)c1,12.9 nM
